Experimental data taken from patent US7510825B2, “Kits and methods for detection of apoptotic cells” (NST NeuroSurvival Technologies Ltd, priority 2000, dated 2009).

Columns and labels:
[1] = tested on: injured renal tissues (outer medulla); test: Radiocontrast-induced distal tubular necrosis model, detection by DDC; format: in vivo, rat; settings: 24 h after radiocontrast insult, DDC i.v. 2 hours
Protocol: (§1) A. Administration of DDC in-vivo: Injection of 200 μl of DDC intravenously. Following 1-2 hours, animal is sacrificed, and the desired organ is placed in a test tube or on a small plate, suitable for liquid nitrogen freezing. The plate is then covered with an aluminum foil, and transferred to liquid nitrogen. Following 5-30 minutes the specimen is being frozen to −80° C. and kept at −80° C. for at least 16 hr. B. Analysis of the Specimen: • a. Whole organ imaging Ex-vivo whole organ fluorescence imaging may be carried out on freshly excised specimen, that can be analyzed under a stereomicroscope (such as Leica MZ FL III, Leica Switzerland). DDC may be visualized using 360cx and >420cm nm filter set. Emitted fluorescence can be imaged using appropriate camera and software, such as a Leica DC 300F Distal camera and images can be processed and analyzed by Leica QWin Lite software. • b. […] Analysis of the tissue sections can be performed using a fluorescence microscope with a UV filter characterized by excitation at 360-370 nm (band pass) and emission at 420 nm (barrier filter) In case that staining of the examined tissue is desired, the following procedures can be applied:
The selectivity of DDC uptake in injured renal tissues was evaluated in this rat model, characterized by selective medullary hypoxic tubular damage. […]

platelets = test: Selective binding of DDC to activated platelets, flow cytometry; format: cell-based; settings: 10 μM DDC for 5 minutes
Protocol: The selective binding of DDC to activated platelets was determined using flow cytometric (FACS) analysis. Platelet-rich plasma was obtained from healthy volunteers. 10^9 of the fresh platelets were centrifuged (5 minutes, 380×g), washed and re-suspended in Tyrode's buffer (137 mM NaCl; 2.8 mM KCl; 1 mM MgCl2, 12 mM NaHCO3; 0.4 mM Na2HPO4; 5.5 mM D-glucose and 10 mM Hepes pH 7.4; 0.35% BSA). The purified platelets were kept on ice, and served as controls.
For activation, 200 μl of washed platelets were incubated with a mixture of 0.05 units/ml of thrombin and 5 μg/ml collagen for 5 min. at 37°, in the presence of 2 mM CaCl2 in a final volume of 1 ml. Following incubation, the platelets were centrifuged (2 min. at 10^4 rpm) and resuspended in 1 ml of Tyrode's buffer.
Activated and control non-treated platelets were incubated with 10 μM of DDC for 5 minutes at room temperature. […] Excitation was at 360 nm and emission was measured at 530 nm. […] While only a small fraction of the control platelets manifested binding of DDC (3.6% of the population), platelet activation caused 81% of the platelet population to acquire a marked DDC binding, reflected as a distinct shift to higher fluorescence intensity. As shown in tile FACS histogram in FIG. 21B, activation was associated with a major shift of the whole platelet population to higher fluorescence intensity. […]

C6-Glioma tumor = test: Accumulation of DDC in apoptotic cells of glioma following irradiation; format: in vivo, mice; settings: 20 h after radiation (6 gray)
[2] = tested on: epithelial cells of the small intestine; test: Detection by DDC of apoptosis in small intestine epithelial cells following chemotherapy; format: in vivo, mice; settings: 48 hr following Cyclophosphamide and Taxol chemotherapy
Protocol: as §1, with “DDC may be visualized using 360cx and >420cm nm filter set.” left out
Chemotherapy treatment is not selective to tumor cells, but can also affect other organs/tissue within the body as a side effect. […] Such side effects may be detected by DDC in the small intestine, in which the epithelial cells are affected by the chemotherapy. […]

[3] = tested on: Jurkat cells (T-cell leukemia); test: Binding of DDC and PI to Jurkat cells treated with CD95, confocal microscopy; format: cell-based, human; settings: CD95 for 180 minutes; confocal microscope
Protocol: For microscopic analysis the concentration of cells should be within 1-2×10^7/ml. […] If fixation is needed, it should be performed after DDC staining. • 1. Adjusting the cells to 1-2×10^7/ml in buffer. • 2. Transferring 96 μl from the cell suspension to an eppendorf and staining the cells by adding 4 μl from the DDC solution. Incubating for 10-40 minutes at RT protected from light. • 3. A double labeling could be conducted with PI, if desired. In such a case, 1 μl is added from the PI solution. • 4, Placing the cell suspension on a glass slide. Covering the cells with a glass coverslip. Alternatively, for analyzing adherent cells, cells may grow directly on coverslip. Staining the cells by incubation with DDC (4 μl of DDC/96 μl buffer reaction) or 10-40 minutes and PI (1 μl). […] Observing the cells under fluorescent or confocal microscope equipped with the appropriate UV filter (excitation at 360-370 nm, band pass, and emission at 420 nm, barrier filter. Using a Triple filter (Hoechst/FITC/Texas Red) allows concomitant observation of both DDC and PI. Quantitative Assay for DDC Accumulation using Fluorescene Spectroscopy
Jurkat cells (T-cell leukemia) were treated with CD95 for 180 minutes and incubated with DDC followed by incubation with Propidium Iodide (PI) as detailed in DDC protocols IIIC. The cells were analyzed under fluorescent confocal microscope using a UV filter. […]

SMILES: CN(C)c1cccc2c(S(=O)(=O)NC(CSSCC(NS(=O)(=O)c3cccc4c(N(C)C)cccc34)C(=O)O)C(=O)O)cccc12 (stereo not shown) [DDC]
- DDC distribution pattern versus morphological findings in the contralateral kidney [1]: closely followed the characteristic striped pattern
- fraction of platelet population binding DDC (platelets; control platelets): 3.6%
- fraction of platelet population binding DDC (platelets; platelets activated by thrombin and collagen): 81%
- binding to viable tumor cells or normal brain tissue (C6-Glioma tumor): not binding
- labeling of cells undergoing cell death within the glioma tumor (C6-Glioma tumor): specifically and selectively labeled cells undergoing cell death
- uptake of DDC into single epithelial cells [2]: increased uptake
- cellular staining pattern in apoptotic cells [3]: accumulated within the cytoplasm of early and late apoptotic cells
